For orientation: EC50 means the midpoint of the concentration-response curve. High values mean a need for much substance, low ones an effect from little substance. The IC50 is the midpoint of a concentration-inhibition curve. A lower IC50 goes with higher potency.

Where only a bound is given, the exact number is not on record here.

Assay [1] deals with PIK3CA (human) (UniProt P42336). The assay is described as follows: Inhibition of A2780 Cell Proliferation.
The target is the same in assay [2]. Briefly: Inhibition of PIK3CA Kinase Activity.

Chain of PIK3CA (human) (P42336 whole entry, looked up): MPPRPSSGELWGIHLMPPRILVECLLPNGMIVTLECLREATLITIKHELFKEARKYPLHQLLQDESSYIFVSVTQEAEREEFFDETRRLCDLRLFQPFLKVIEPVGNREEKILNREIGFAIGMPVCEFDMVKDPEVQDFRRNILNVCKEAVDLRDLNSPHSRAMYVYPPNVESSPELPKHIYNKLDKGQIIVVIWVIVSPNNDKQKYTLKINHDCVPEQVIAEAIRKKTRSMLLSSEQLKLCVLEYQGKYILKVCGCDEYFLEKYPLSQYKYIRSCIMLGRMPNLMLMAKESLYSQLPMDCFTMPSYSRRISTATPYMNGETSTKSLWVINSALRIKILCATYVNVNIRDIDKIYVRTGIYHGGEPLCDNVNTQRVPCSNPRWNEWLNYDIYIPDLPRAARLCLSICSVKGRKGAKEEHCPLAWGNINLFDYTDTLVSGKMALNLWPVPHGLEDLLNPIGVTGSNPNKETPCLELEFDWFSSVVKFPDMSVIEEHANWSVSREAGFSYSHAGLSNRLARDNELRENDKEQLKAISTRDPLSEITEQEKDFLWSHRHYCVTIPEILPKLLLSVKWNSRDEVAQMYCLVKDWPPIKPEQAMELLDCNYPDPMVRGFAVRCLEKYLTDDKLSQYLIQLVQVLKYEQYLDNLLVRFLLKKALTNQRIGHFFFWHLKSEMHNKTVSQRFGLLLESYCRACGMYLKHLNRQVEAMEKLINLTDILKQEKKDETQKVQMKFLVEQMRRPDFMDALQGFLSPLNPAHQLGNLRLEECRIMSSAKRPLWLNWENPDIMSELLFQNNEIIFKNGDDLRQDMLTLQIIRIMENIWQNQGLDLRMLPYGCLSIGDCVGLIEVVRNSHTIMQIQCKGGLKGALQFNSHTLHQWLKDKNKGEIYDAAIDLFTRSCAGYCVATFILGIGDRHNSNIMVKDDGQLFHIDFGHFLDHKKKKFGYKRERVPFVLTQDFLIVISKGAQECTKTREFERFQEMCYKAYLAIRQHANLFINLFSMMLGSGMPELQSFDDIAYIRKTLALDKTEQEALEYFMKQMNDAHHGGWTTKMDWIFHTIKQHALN

In turn, `CN(C)CCCC(=O)Nc1cn2nc(-c3cnc(N)c(C(F)(F)F)c3)ccc2n1` registered an EC50 at PIK3CA (human) [1] of under 1000 nM. The IC50 at PIK3CA (human) [2] was under 1000 nM.
As for `CNCC(=O)Nc1cn2cc(-c3cnc(N)c(OCCOC)n3)ccc2n1`, the half-maximal effective concentration (EC50) at PIK3CA (human) [1] is under 10000 nM. Also, at PIK3CA (human) [2], the IC50 is under 1000 nM.
The matching figures for `CC(=O)Nc1nc2c(F)cc(-c3cnc(N)c(C(F)(F)F)c3)cc2s1`: under 25000 nM and under 1000 nM.
For `CC(C)(C)OC(=O)N1CC[C@H](OCC(=O)Nc2cn3nc(-c4cnc(N)c(C(F)(F)F)c4)ccc3n2)C1` the same measures were under 1000 nM and under 1000 nM.
With `CC(C)(C)OC(=O)N1CC(C(=O)Nc2cn3nc(-c4cnc(N)c(C(F)(F)F)c4)ccc3n2)C1`, the EC50 on PIK3CA (human) [1] was under 10000 nM. In addition, the IC50 against PIK3CA (human) [2] is under 1000 nM.
The matching figures for `Nc1ncc(-c2ccc3nc(NC(=O)c4ccc(F)cc4)cn3c2)cc1C(F)(F)F`: under 1000 nM and under 1000 nM.
Turning to `CC(=O)Nc1cn2nc(-c3cnc(N)cc3C(F)(F)F)ccc2n1`, at PIK3CA (human) [1], the concentration for a half-maximal effect (EC50) is under 25000 nM. For the same compound, the half-inhibitory concentration (IC50) against PIK3CA (human) [2] was under 1000 nM.
On to `CC(=O)Nc1cn2c(C)c(-c3cnc(N)c(C(F)(F)F)c3)ccc2n1`, for which the EC50 at PIK3CA (human) [1] was under 10000 nM. At PIK3CA (human) [2], this compound yielded an IC50 of under 1000 nM.
In turn, `CC(=O)Nc1nc2ccc(-c3cnc(N)c(C(F)(F)F)c3)cn2c1-c1ccc(C(N)=O)cc1` yielded a 50% effective concentration (EC50) on PIK3CA (human) [1] of under 25000 nM. This compound also had an IC50 against PIK3CA (human) [2] of under 1000 nM.
For `Nc1ncc(-c2ccc3nc(NC(=O)CCCN4CCCCC4)cn3n2)cc1C(F)(F)F`, the concentration giving a half-maximal response (EC50) at PIK3CA (human) [1] was under 1000 nM. Further, at PIK3CA (human) [2], the IC50 was under 1000 nM.
The compound `CC(=O)Nc1cn2cc(-c3cnc(N)c(F)c3)ccc2n1` returned an EC50 on PIK3CA (human) [1] of under 25000 nM. On PIK3CA (human) [2], this compound registered an IC50 of under 1000 nM.
For `CCN1CCCCC1CCC(=O)Nc1cn2nc(-c3cnc(N)c(C(F)(F)F)c3)ccc2n1` (stereo not drawn) the same measures were under 1000 nM and under 1000 nM.
With `CC(=O)Nc1cn2nc(-c3cnc(N)c(-c4ccccc4Oc4ccccc4)c3)ccc2n1`, the half-maximal effective concentration (EC50) on PIK3CA (human) [1] is under 10000 nM. The compound further gave an IC50 against PIK3CA (human) [2] of under 1000 nM.
For `COCCOc1nc(-c2ccc3nc(NC(=O)C4CCN4)cn3c2)cnc1N` (stereo not drawn), the half-maximal effective concentration (EC50) on PIK3CA (human) [1] is under 25000 nM. At PIK3CA (human) [2], this compound yielded a concentration for half-maximal inhibition (IC50) of under 1000 nM.
The matching figures for `COc1cc(-c2ccc3nc(NC(C)=O)cn3c2)c(C)nc1N`: under 10000 nM and at least 25000 nM.
The matching figures for `CC(=O)Nc1cn2cc(-c3cnc(N)c(C=O)c3)ccc2n1`: under 10000 nM and under 1000 nM.
For `CC(=O)Nc1nc2ccc(-c3cnc(N)cc3C)cc2s1` the same measures were under 25000 nM and under 1000 nM.
Turning to `COC(=O)C1CCN(C(=O)Nc2cn3cc(-c4cnc(N)c(C(F)(F)F)c4)ccc3n2)C1` (stereo not drawn), on PIK3CA (human) [1], the EC50 is under 10000 nM. On PIK3CA (human) [2], the IC50 was under 1000 nM.
On PIK3CA (human) [1], `Nc1ncc(-c2ccc3nc(NC(=O)[C@H]4CCCCN4)cn3c2)cc1C(F)(F)F` displayed an EC50 of under 10000 nM. The IC50 at PIK3CA (human) [2] is under 1000 nM.
Regarding `CC(=O)Nc1cn2nc(-c3cnc(N)c(N4CCOCC4)n3)ccc2n1`, the concentration giving a half-maximal response (EC50) at PIK3CA (human) [1] is under 25000 nM. In addition, at PIK3CA (human) [2], the IC50 is under 1000 nM.
`CC(=O)N1CCC[C@H]1C(=O)Nc1cn2cc(-c3cnc(N)c(Cl)c3)ccc2n1`: the EC50 at PIK3CA (human) [1] was under 25000 nM. At PIK3CA (human) [2], this compound showed a 50% inhibitory concentration (IC50) of under 1000 nM.
`CC(=O)Nc1cn2cc(-c3cnc(N)c(-c4cccc(N5CCOCC5)c4)c3)ccc2n1` had an EC50 on PIK3CA (human) [1] of under 1000 nM. The half-maximal inhibitory concentration (IC50) against PIK3CA (human) [2] was under 1000 nM.
With `Nc1ncc(-c2ccc3nc(NC(=O)Cc4ccccn4)cn3c2)cc1C(F)(F)F`, the 50% effective concentration (EC50) on PIK3CA (human) [1] is under 10000 nM. This compound returned a half-inhibitory concentration (IC50) against PIK3CA (human) [2] of under 1000 nM.
Compound `CC(=O)Nc1cn2nc(-c3cnc(N)c(C(=O)NCCO)c3)ccc2n1` had an EC50 on PIK3CA (human) [1] of under 25000 nM. Further, the concentration for half-maximal inhibition (IC50) against PIK3CA (human) [2] is under 1000 nM.
For `CC(=O)Nc1nc2ccc(-c3cnc(N)c(C(F)(F)F)c3)cn2c1-c1cccc(F)c1` the same measures were under 25000 nM and under 1000 nM.
For `C[C@H](N)C(=O)Nc1cn2nc(-c3cnc(N)c(C(F)(F)F)c3)ccc2n1` the same measures were under 10000 nM and under 1000 nM.
Compound `Nc1ncc(-c2ccc3nc(NC(=O)C4CNC4)cn3c2)cc1C(F)(F)F` came in with a half-maximal effective concentration (EC50) on PIK3CA (human) [1] of under 10000 nM. This compound returned an IC50 against PIK3CA (human) [2] of under 1000 nM.
The matching figures for `CC(=O)Nc1cn2cc(-c3cnc(N)c(-c4ccccc4)c3)ccc2n1`: under 10000 nM and under 1000 nM.
Consider `Nc1ncc(-c2ccc3nc(NC(=O)c4cccc(F)c4)cn3c2)cc1C(F)(F)F`, for which, on PIK3CA (human) [1], the concentration for a half-maximal effect (EC50) is under 10000 nM. The same compound gave a 50% inhibitory concentration (IC50) on PIK3CA (human) [2] of under 1000 nM.
Turning to `CC(=O)Nc1cn2cc(-c3ccc(N)nc3)ccc2n1`, the concentration giving a half-maximal response (EC50) at PIK3CA (human) [1] was under 10000 nM. Moreover, the half-inhibitory concentration (IC50) on PIK3CA (human) [2] was under 1000 nM.
In the case of `CC(=O)Nc1cccc(-c2c(NC(C)=O)nc3ccc(-c4cnc(N)c(C(F)(F)F)c4)cn23)c1`, the EC50 on PIK3CA (human) [1] was under 25000 nM. On PIK3CA (human) [2], this compound yielded an IC50 of under 1000 nM.
Take `CC(=O)Nc1nc2ccc(-c3cnc(N)c(C(F)(F)F)c3)cn2c1-c1ccccc1`: the half-maximal effective concentration (EC50) at PIK3CA (human) [1] is under 25000 nM. On PIK3CA (human) [2], the concentration for half-maximal inhibition (IC50) was under 1000 nM.
With `CC(=O)Nc1cn2cc(-c3cnc(N)c(C)n3)ccc2n1`, the concentration for a half-maximal effect (EC50) on PIK3CA (human) [1] is under 10000 nM. For the same compound, the IC50 against PIK3CA (human) [2] is under 1000 nM.
As for `CC(C)(C(=O)Nc1cn2cc(-c3cnc(N)c(C(F)(F)F)c3)ccc2n1)c1ccccc1`, the half-maximal effective concentration (EC50) at PIK3CA (human) [1] is under 25000 nM. The same compound showed a 50% inhibitory concentration (IC50) against PIK3CA (human) [2] of under 10000 nM.

The values above are taken from the Kinase Knowledgebase extract (Sharma et al. 2016).
